Test results reported in patent US20120083522A1, “MODULATION OF INFLAMMATORY RESPONSES BY FACTOR XI” (Isis Pharmaceuitcals, inc., priority 2009, published 2012).
In the oligonucleotide strings, read from the 5' end, every base follows the letter of its sugar. An asterisk marks phosphorothioate; unmarked linkages are phosphodiester. Other units and linkages are bracketed, terminal groups are in braces. A string of capitals states the bases alone. e = 2'-O-(2-methoxyethyl) (MOE); [5mC] = 5-methylcytosine; d = 2'-deoxy (DNA)

Columns and labels:
murine Factor XI protein = test: In vivo antisense inhibition of murine Factor XI: plasma protein analysis (Example 10); conditions: BALB/c mice; for % inhibition: Factor XI protein, relative to PBS control
Method: BALB/c mice were injected with 5 mg/kg, 10 mg/kg, 25 mg/kg, or 50 mg/kg of ISIS 404057 or ISIS 404071 twice a week for 3 weeks. A control group of mice was injected with phosphate buffered saline (PBS) twice a week for 3 weeks. Mice were sacrificed 5 days after receiving the last dose. Whole liver was harvested for RNA analysis and plasma was collected for protein analysis.
Results are presented as percent inhibition of Factor XI, relative to PBS control.

[1] = system: DSS-induced colitis model; test: Colitis Study A: DSS-induced colitis, body weight and colon length (Example 12); format: in vivo, Swiss Webb mice; conditions: for colon length (in words): FIG. 7C
Method: The effect of antisense oligonucleotide inhibition of Factor XI and its role in ameliorating colitis was evaluated in a dextran sulfate sodium (DSS)-induced colitis model. Administration of DSS to animals is a well known method to induce […] and has been previously described by Okayasu et al. (Gastroenterology, 1990, 98:694-702), Cooper et al. (Lab Invest, 1993, 69:238-249) and Dieleman et al. (Clin Exp Immunol, 1998, 114:385-391).
In groups of 8 Swiss Webb mice, 20 mg/kg of ISIS 404071 or ISIS 403102 were injected subcutaneously twice a week for 3 weeks. Two control groups of 8 mice each were injected with PBS twice a week for 3 weeks. After the oligonucleotide treatments, 4% DSS in water was administered ad libitum for 6 days to the experimental groups and one PBS control group.
Mice in all groups were weighed at day 0. Mice were sacrificed at the end of the study on day 7 after DSS was administered and their body weights and colon lengths were measured. Results are presented in Table 24 (expressed as a percentage of the PBS control) and FIG. 7.
Colon length was assessed in the DSS-induced colitis mice.

[2] = system: DSS-induced colitis model; test: Colitis Study C: stool softness/diarrhea; format: in vivo, mice; conditions: after seven days
Method: A third study on colitis using Factor XI oligonucleotide (ISIS 404071, SEQ ID NO: 11) was conducted. The study was performed essentially as described earlier in this example. A stool softness/diarrhea study was conducted.

[3] = system: thrombin-antithrombin (TAT) complexes; test: Colitis Study E: TAT levels; format: in vivo, Swiss Webb mice; conditions: for TAT levels: colon, DSS-treated mice, day 7, 40 mpk
Method: (§1) Two groups 8 Swiss Webb mice were dosed with 40 mg/kg of ISIS 404071 injected subcutaneously twice a week for 3 weeks. Two control groups of 8 Swiss Webb mice were dosed with PBS subcutaneously twice a week for 3 weeks. Both the ASO treated groups and one of the control groups were then given 4% DSS in distilled water for 7 days ad libitum. One of the ASO and DSS treated groups was also given intravenous injections of 20 μg of recombinant human Factor XI protein (Haematologic Technologies Inc.) for 7 consecutive days, starting the day before DSS treatment. Mice were sacrificed at the end of the study on day 7 after DSS was administered.
Mice with dextran sodium sulfate (DSS)-induced colitis have elevated level of thrombin-antithrombin (TAT) complexes in blood (Anthoni, C. et al., J. Exp. Med. 204: 1595-1601, 2007) and is also observed in patients with ulcerative colitis (Kume, K. et al., Intern Med. 2007. 46: 1323-9). The effect of antisense inhibition of Factor XI on TAT levels in the […] was evaluated (Siemens Healthcare Diagnostics, Deerfield, Ill.) at the end of the study on day 7 after DSS was administered and the results are presented in Table 38.

[4] = system: soluble CD40 ligand (CD40L); test: Colitis Study E: CD40L plasma levels; format: in vivo, Swiss Webb mice; conditions: for CD40L plasma levels: DSS-treated mice, day 7, 40 mpk
Method: as §1
Plasma levels of soluble CD40 ligand (CD40L) are known to be elevated in cases of inflammatory bowel disease (Ludwiczek, O. et al., Int. J. Colorectal Disease. 2003. 18: 142-147) and may be considered a marker of intestinal inflammation. The effect of antisense inhibition of Factor XI on CD40L levels in the plasma was evaluated at the end of the study on day 7 after DSS was administered and the results are presented in Table 39. CD40L levels in plasma were measured by commercially available ELISA kits (Bender MedSystems, Vienna, Austria, eBioscience, San Diego, Calif.) according to the manufacture's protocols.

bradykinin = test: Colitis Study E: bradykinin levels in colon; format: in vivo, Swiss Webb mice; conditions: for Bradykinin levels in the colons: DSS-treated mice, day 7, 40 mpk
Method: as §1
The effect of antisense inhibition of Factor XI on kinin levels in the colon was evaluated (Phoenix Pharmaceuticals, Burlingame, Calif.) at the end of the study on day 7 after DSS was administered and the results are presented in Table 40.

[5] = system: OVA/alum-induced asthma model; test: OVA-induced asthma model: mucus production (Example 13); format: in vivo, BALB/c mice
Method: The mice were divided into four treatment groups of 5 mice each. One group received subcutaneous injections of ISIS 404071 at a dose of 50 mg/kg twice a week for 4 weeks. One group of mice received subcutaneous injections of control oligonucleotide, ISIS 421208, which is a mismatch oligonucleotide sequence of ISIS 404071, at a dose of 50 mg/kg twice a week for 4 weeks. Two groups of mice received subcutaneous injections of PBS twice a week for 4 weeks. One PBS group remained untreated and served as the control group. The second PBS group and both the oligonucleotide treated groups were injected with OVA/alum on days 0 and 14 and nebulized with OVA in PBS on days 24, 25, and 26. The first OVA application served to sensitize the mice against OVA while the second was a challenge application to provoke an asthmatic reaction. Two days following the final dose, the mice were euthanized, bronchial lavage (BAL) was collected and analyses done.
Lung sections were stained with periodic acid […] (PAS) base stain that stains mucus, which is produced during asthma attacks (Rogers, D. F. Curr. Opin Pharmacol. 2004. 4: 241-250). The number of airways containing mucus as a percentage of the total airways in the lungs was evaluated.

[6] = DSS-induced colitis, day 7, 20 mg/kg s.c. twice a week for 3 weeks, expressed as a percentage of the PBS control
[7] = plus human recombinant FXI 20 ug/mouse/day

## TGGTAATCCACTTTCAGAGG (eT*eG*eG*eT*eA*dA*dT*d[5mC]*d[5mC]*dA*d[5mC]*dT*dT*dT*d[5mC]*eA*eG*eA*eG*eG) [ISIS 404071, 5-10-5 MOE gapmer targeting murine Factor XI, target start site 869]
Murine Factor XI protein; 5-50 mg/kg twice a week for 3 weeks
  Factor XI protein (in words): significant dose-dependent reduction of Factor XI protein
Murine Factor XI protein; 5 mg/kg twice a week for 3 weeks
  % inhibition: 39%
Murine Factor XI protein; 10 mg/kg twice a week for 3 weeks
  % inhibition: 67%
Murine Factor XI protein; 25 mg/kg twice a week for 3 weeks
  % inhibition: 89%
Murine Factor XI protein; 50 mg/kg twice a week for 3 weeks
  % inhibition: 96%
[1]; Colitis Study A, FIG. 7A/7B
  body weight (in words): did not have any significant change in body weight
[1]; Colitis Study A, listed as Factor XI ASO
  colon length (in words): had no significant change in colon length
[1]; Colitis Study A, listed as Factor XI oligonucleotide
  colon length (in words): decreased the amount of colon shortening
[1]; [6]
  Body weight change: −2%
  Colon length change: −13%
[2]
  stool softness/diarrhea (in words): normal to soft stool but no diarrhea
[3]; Colitis Study E, day 7
  TAT levels (in words): decreased
[3]; no human recombinant FXI
  TAT levels: 0.1 ng/mg protein
[3]; [7]
  TAT levels: 0.8 ng/mg protein
[4]; Colitis Study E, day 7
  CD40L levels in plasma (in words): decreased
[4]; no human recombinant FXI
  CD40L plasma levels: 1.5 ng/mL
[4]; [7]
  CD40L plasma levels: 1.6 ng/mL
bradykinin; Colitis Study E, day 7
  bradykinin levels (in words): decreased
bradykinin; no human recombinant FXI
  Bradykinin levels in the colons: 0.1 ng/mg
bradykinin; [7]
  Bradykinin levels in the colons: 0.3 ng/mg
[5]
  mucus production in the lungs (in words): decreased mucus production in the lungs
[5]; BALB/c mice, 50 mg/kg s.c. twice a week for 4 weeks, PAS stain of lung sections
  Mucus production, % airways containing mucus: 34 % airways
